{"source": "paper PMC5314961", "about": "(Bioorganic & medicinal chemistry letters, 2017)", "key": {"HBV [1]": {"test_system": "HBV", "test": "Anti-HBV activity in HepAD38 cells, HBV DNA replication by real-time PCR", "type": "cell-based, Hepatitis B virus", "conditions": "for anti-HBV activity (result in words): HepAD38 system, concentrations up to 10 µM"}, "HBV [2]": {"test_system": "HBV", "conditions": "literature report; cited from earlier work"}}, "note": "Entries after “also recorded” stand apart in the source; their conditions may differ."}
{"smiles": "CC1(C)CC(=O)C2=C(C1)NC(c1cccnc1)=NC2c1ccc(F)cc1Cl", "note": "(stereo not drawn) [Compound 1, reference compound]", "values": [{"measurement": "anti-HBV activity (result in words)", "setting": "HBV [1]", "value": "did not express any activity"}, {"measurement": "inhibitor of HBV replication (reported in the literature)", "setting": "HBV [2]", "value": "submicromolar inhibitor"}]}
{"smiles": "COC(=O)C1=C(CN=[N+]=[N-])NC(c2ccccn2)=NC1c1ccc(F)cc1Cl", "note": "(stereo not drawn) [Compound 21d]", "values": [{"measurement": "EC50", "setting": "HBV [1]; Hepatitis B virus, HePAD38, read-out: Anti-HBV activity, EC50, HepAD38 cells, inhibition of HBV DNA replication by 50%, tested 0.001 to 10 µM, duplicate", "value": 7.5, "unit": "µM"}]}
{"smiles": "CC1=C(Cl)C(c2ccc(F)cc2Cl)N=C(c2ccccn2)N1", "note": "(stereo not drawn) [Compound 26c]", "values": [{"measurement": "anti-HBV activity (result in words)", "setting": "HBV [1]", "value": "none of them showed activity; also recorded: inactive"}]}
{"smiles": "CC1=C(C(=O)OCC(F)(F)F)C(c2ccc(F)cc2Cl)N=C(c2ccccn2)N1", "note": "(stereo not drawn) [Compound 26e]", "values": [{"measurement": "anti-HBV activity (result in words)", "setting": "HBV [1]", "value": "none of them showed activity"}]}
{"smiles": "CC1=C(C(=O)NS(=O)(=O)N(C)C)C(c2ccc(F)cc2Cl)N=C(c2ccccn2)N1", "note": "(stereo not drawn) [Compound 26f]", "values": [{"measurement": "anti-HBV activity (result in words)", "setting": "HBV [1]", "value": "none of them showed activity"}]}
